This note sets out measurements from US8410107B2, “N-pyridin-3-yl or N-pyrazin-2-yl carboxamides” (Hoffmann-La Roche Inc., priority 2010, dated 2013).

Bounds are passed on as bounds.

For assay [1], the target named is T1, human CB2 receptor (Homo sapiens, UniProt P34972).
T1 construct: expressed in transfected cells; host or cells: human embryonic kidney (HEK) cells, Semliki Forest Virus system, membrane preparations
As to the kind of experiment: CB2 receptor affinity ([3H]-CP-55,940 displacement, HEK cell membranes). The following applies: displacement of radioligand [3H]-CP-55,940. In kind it is binding. Put shortly:
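Membranes from HEK cells transiently expressing human CB2 via Semliki Forest Virus, incubated with [3H]-CP-55,940 ± compound; bound ligand separated by glass-fiber filtration and counted by scintillation. Reported as % inhibition of radioligand binding at 10 μM compound.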

In assay [2] the target is T2, human CB1 receptor (Homo sapiens, UniProt P21554).
T2 construct: expressed in transfected cells; host or cells: human embryonic kidney (HEK) cells, Semliki Forest Virus system, membrane preparations
As to the kind of experiment: CB1 receptor affinity ([3H]-CP-55,940 displacement, HEK cell membranes). Type of assay: binding. The following applies: displacement of radioligand [3H]-CP-55,940. Put shortly: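 HEK cell membranes transiently expressing human CB1 (Semliki Forest Virus) incubated with [3H]-CP-55,940 and compound at 10 μM. Bound and free ligand separated by glass-fibre filtration, then scintillation counting. Reported as % inhibition of radioligand binding.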

Assay [3] has as its system ABCA1 protein. The assay can be described thus: Detection of upregulation of ABCA1 protein in cells (ApoA-I binding, high content image analysis). In kind it is cell-based. The following applies: THP-1 macrophage cells; for % increase of ABCA1 at 3 μM: 24 hrs with compound. The procedure, abridged:
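THP-1 cells differentiated with 100 nM PMA for 68 hrs, loaded with 25 μg/ml acetylated LDL for 24 hours, then exposed to compound (0.5% DMSO) for 24 hrs. Surface ABCA1 measured by binding of AlexaFluor 647-labeled human ApoA-I (20 nM, 2 h, 37 °C) with confocal high-content imaging; EC50 from one-site dose-response fit.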

T1 sequence (P34972 whole entry): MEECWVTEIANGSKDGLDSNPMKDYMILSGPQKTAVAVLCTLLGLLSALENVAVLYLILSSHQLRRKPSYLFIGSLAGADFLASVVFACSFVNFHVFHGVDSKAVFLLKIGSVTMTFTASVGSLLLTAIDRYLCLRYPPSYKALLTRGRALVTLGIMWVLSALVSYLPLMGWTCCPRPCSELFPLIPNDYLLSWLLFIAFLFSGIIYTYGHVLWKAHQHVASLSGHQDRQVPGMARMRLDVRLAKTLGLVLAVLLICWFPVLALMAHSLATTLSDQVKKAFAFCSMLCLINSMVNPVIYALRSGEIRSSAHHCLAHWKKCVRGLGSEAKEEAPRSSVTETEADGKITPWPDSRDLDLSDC
T2 sequence (P21554 whole entry): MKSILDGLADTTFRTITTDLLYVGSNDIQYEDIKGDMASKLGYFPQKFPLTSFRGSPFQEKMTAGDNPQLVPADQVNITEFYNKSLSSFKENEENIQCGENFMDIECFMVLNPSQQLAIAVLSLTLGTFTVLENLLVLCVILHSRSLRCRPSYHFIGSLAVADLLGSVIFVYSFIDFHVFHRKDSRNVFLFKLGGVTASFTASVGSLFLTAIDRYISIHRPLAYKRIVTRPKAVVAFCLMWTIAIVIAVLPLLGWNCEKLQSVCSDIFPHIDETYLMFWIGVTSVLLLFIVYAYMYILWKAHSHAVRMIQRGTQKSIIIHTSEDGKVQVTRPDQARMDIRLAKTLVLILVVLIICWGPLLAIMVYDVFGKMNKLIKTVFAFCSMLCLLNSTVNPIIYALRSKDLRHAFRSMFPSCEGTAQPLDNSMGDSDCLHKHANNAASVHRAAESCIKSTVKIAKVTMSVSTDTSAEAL

Take `Cc1ocnc1C(=O)Nc1cnc(OC2CCC2)c(-c2ccc(Cl)cc2)c1` [Example 82, 5-Methyl-oxazole-4-carboxylic acid[5-(4-chloro-phenyl)-6-cyclobutoxy-pyridin-3-yl]-amide]: the inhibition (usually the relative decrease from the control value, in per cent) at 10 µM stood at 37% in assay [1] and 29% in assay [2]. The “% increase of ABCA1 at 3 μM” value in assay [3] is listed as over 45% @ 3 μM.

Take `Cc1cncc(C(=O)Nc2cnc(OC3CCC3)c(-c3ccc(Cl)cc3)c2)c1` [Example 83, N-[5-(4-Chloro-phenyl)-6-cyclobutoxy-pyridin-3-yl]-5-methyl-nicotinamide]: the inhibition at 10 µM is -5% in assay [1] and 27% in assay [2]. Further, the “% increase of ABCA1 at 3 μM” value in assay [3] was over 45% @ 3 μM.

Consider `CNC(=O)c1ccc(C(=O)Nc2cnc(OCC(F)(F)F)c(-c3ccc(Cl)cc3)c2)cn1` [Example 84, N5-(5-(4-chlorophenyl)-6-(2,2,2-trifluoroethoxy)pyridin-3-yl)-N2-methylpyridine-2,5-dicarboxamide], for which the inhibition at 10 µM in assay [1] amounted to 3%; in assay [2] it was 23%. Besides, the “% increase of ABCA1 at 3 μM” value in assay [3] was over 45% @ 3 μM.

Regarding `O=C(Nc1cnc(OCC(F)(F)F)c(-c2ccc(Cl)cc2)c1)c1cncc(Br)c1` [Example 85, 5-bromo-N-(5-(4-chlorophenyl)-6-(2,2,2-trifluoroethoxy)pyridin-3-yl)nicotinamide], the inhibition at 10 µM in assay [1] was found to be 5%; in assay [2] it was 38%. Also, the “% increase of ABCA1 at 3 μM” value in assay [3] is on record as over 45% @ 3 μM.

Turning to `COC(C)C(=O)Nc1cnc(OCC(F)(F)F)c(-c2ccc(Cl)cc2)c1` (stereo not drawn) [Example 86, N-(5-(4-chlorophenyl)-6-(2,2,2-trifluoroethoxy)pyridin-3-yl)-2-methoxy-propanamide], the inhibition at 10 µM amounted to 5% in assay [1] and 48% in assay [2]. For the same molecule, in assay [3], the “% increase of ABCA1 at 3 μM” value is given as over 45% @ 3 μM.

`CNC(=O)c1cncc(C(=O)Nc2cnc(OCC(F)(F)F)c(-c3ccc(Cl)cc3)c2)c1` [Example 87, N3-(5-(4-chlorophenyl)-6-(2,2,2-trifluoroethoxy)pyridin-3-yl)-N5-methylpyridine-3,5-dicarboxamide]: the inhibition at 10 µM in assay [1] is -15%; in assay [2], 19%. Besides, in assay [3], the “% increase of ABCA1 at 3 μM” value is listed as over 45% @ 3 μM.

Turning to `CO[C@H](C)C(=O)Nc1cnc(OCC(F)(F)F)c(-c2ccc(Cl)cc2)c1` [Example 88, (+)-N-(5-(4-chlorophenyl)-6-(2,2,2-trifluoroethoxy)pyridin-3-yl)-2-methoxypropanamide], the inhibition at 10 µM amounted to 16% in assay [1] and 41% in assay [2]. In addition, the “% increase of ABCA1 at 3 μM” value in assay [3] is reported as over 45% @ 3 μM.

On to `CO/N=C(\C)C(=O)Nc1cnc(OCC(F)(F)F)c(-c2ccc(Cl)cc2)c1` [Example 89, (E)-N-(5-(4-chlorophenyl)-6-(2,2,2-trifluoroethoxy)pyridin-3-yl)-2-(methoxyimino)propanamide], for which the inhibition at 10 µM in assay [1] is 5%; in assay [2], 35%. Besides, the EC50 (commonly the midpoint of the concentration-response curve) in assay [3] (ABCA1 protein increasing efficacy) came to 3.31 µM.
